# According to PMC7132963, “NTP42, a novel antagonist of the thromboxane receptor, attenuates experimentally induced pulmonary arterial hypertension” (BMC Pulmonary Medicine, 2020):
# Target: T1, TPβ isoform of the human T Prostanoid receptor (thromboxane receptor, TP) (Homo sapiens, UniProt P21731)
# T1 construct: gene TBXA2R; TPβ isoform, stably over-expressed in HEK 293 cells (HEK.TPβ line)
# T1 sequence (P21731 1-328 limits assumed): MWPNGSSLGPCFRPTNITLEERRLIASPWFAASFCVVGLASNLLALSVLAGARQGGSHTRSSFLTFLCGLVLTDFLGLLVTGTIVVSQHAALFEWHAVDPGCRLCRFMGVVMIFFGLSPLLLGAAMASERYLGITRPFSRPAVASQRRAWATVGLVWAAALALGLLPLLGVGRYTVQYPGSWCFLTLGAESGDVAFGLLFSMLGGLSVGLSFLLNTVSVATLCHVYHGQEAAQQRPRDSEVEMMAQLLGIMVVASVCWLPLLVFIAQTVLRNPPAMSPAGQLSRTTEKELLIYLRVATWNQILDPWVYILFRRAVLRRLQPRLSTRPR
# Test: antagonism of U46619-stimulated intracellular calcium mobilization in HEK.TPβ cells (also vs 8-iso-PGF2α, IC50 […])
# Assay type: cell-based
smiles,measurement,value
CC(C)(C)NC(=O)NS(=O)(=O)c1cc(C#N)ccc1Oc1cccc(-c2ccc(OC(F)F)cc2)c1 [NTP42],IC50,8.86 ± 3.07 nM
